PubChem BioAssay (NCI)
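Test compounds were applied to cells in 96-well plates for 48 hours at 5 doses. Here, GI50 denotes the concentration required for 50% inhibition of growth. TGI marks complete inhibition of growth.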

Assays:
Assay in all cases: NCI anticancer screen, dose series, 48 h
[1] = system: NCI-H23 lung
[2] = system: HL-60(TB) leukemia
[3] = system: T-47D breast
[4] = system: UO-31 renal
[5] = system: OVCAR-5 ovarian
[6] = system: CCRF-CEM leukemia
[7] = system: HOP-92 NSCLC
[8] = system: SK-MEL-5 melanoma
[9] = system: SW-620 colon
[10] = system: HS 578T breast
[11] = system: TK-10 renal
[12] = system: DU-145 prostate
[13] = system: OVCAR-8 ovarian
[14] = system: NCI-H226 lung
[15] = system: HCC-2998 colon
[16] = system: U251 CNS
[17] = system: NCI/ADR-RES ovarian
[18] = system: KM12 colon
[19] = system: MOLT-4 leukemia
[20] = system: HOP-62 NSCLC
[21] = system: K-562 leukemia
[22] = system: OVCAR-3 ovarian
[23] = system: BT-549 breast
[24] = system: A549 NSCLC
[25] = system: SK-OV-3 ovarian
[26] = system: A498 renal
[27] = system: HCT-116 colon
[28] = system: SF-268 CNS
[29] = system: IGROV1 ovarian
[30] = system: SNB-19 CNS
[31] = system: CAKI-1 renal
[32] = system: NCI-H460 lung
[33] = system: SF-295 CNS
[34] = system: ACHN renal
[35] = system: HCT-15 colon
[36] = system: SR leukemia
[37] = system: LOX IMVI melanoma
[38] = system: MALME-3M melanoma
[39] = system: HT29 colon
[40] = system: SN12C renal
[41] = system: MCF7 breast
[42] = system: RXF 393 renal
[43] = system: UACC-257 melanoma
[44] = system: M14 melanoma
[45] = system: EKVX NSCLC
[46] = system: MDA-MB-435
[47] = system: MDA-MB-231 breast
[48] = system: SF-539 CNS
[49] = system: COLO 205 colon
[50] = system: SK-MEL-28 melanoma
[51] = system: RPMI-8226 leukemia
[52] = system: SK-MEL-2 melanoma
[53] = system: PC-3 prostate
[54] = system: UACC-62 melanoma
[55] = system: SNB-75 CNS
[56] = system: NCI-H522 lung
[57] = system: OVCAR-4 ovarian

In the case of `O=C1/C(=C/c2ccccc2[N+](=O)[O-])Oc2ccc(O)cc21`, the GI50 [1] is reported as 2.1 µM, the TGI [1] is reported as 5.17 µM and the GI50 [2] is reported as 2.99 µM. It also gave a TGI [2] of 9.91 µM, a GI50 [3] of 2.84 µM and a TGI [3] of 19.4 µM. The GI50 [4] was 1.95 µM, the TGI [4] was 6.86 µM and the GI50 [5] was 2.21 µM. The TGI [5] was 5.72 µM, the GI50 [6] was 2.81 µM and the TGI [6] was over 100 µM. The GI50 [7] was 2.24 µM, the TGI [7] was 9.33 µM and the GI50 [8] was 8.89 µM. The TGI [8] was 22 µM, the GI50 [9] was 1.66 µM and the TGI [9] was 4.12 µM. The GI50 [10] was 1.9 µM, the TGI [10] was 6.35 µM and the GI50 [11] was 3.2 µM. The TGI [11] was 7.7 µM, the GI50 [12] was 2.26 µM and the TGI [12] was 5.38 µM. For the same molecule, the GI50 [13] was 2.86 µM, the TGI [13] was over 100 µM and the GI50 [14] was 1.73 µM. It also gave a TGI [14] of 4.77 µM, a GI50 [15] of 2.74 µM and a TGI [15] of 7.94 µM. It also gave a GI50 [16] of 2.77 µM, a TGI [16] of 11.1 µM and a GI50 [17] of 2.47 µM. The TGI [17] was 7.36 µM, the GI50 [18] was 4.38 µM and the TGI [18] was 16.4 µM. For the same molecule, the GI50 [19] was 3.29 µM, the TGI [19] was over 100 µM and the GI50 [20] was 7 µM. The TGI [20] was 38.9 µM, the GI50 [21] was 2.84 µM and the TGI [21] was over 100 µM. The GI50 [22] was 1.9 µM, the TGI [22] was 3.88 µM and the GI50 [23] was 3.16 µM. The TGI [23] was 12.5 µM, the GI50 [24] was 4.83 µM and the TGI [24] was 26 µM. It also gave a GI50 [25] of 15.3 µM, a TGI [25] of 62.1 µM and a GI50 [26] of 2 µM. It also gave a TGI [26] of 16.9 µM, a GI50 [27] of 1.75 µM and a TGI [27] of 4.17 µM. It also gave a GI50 [28] of 6.32 µM, a TGI [28] of 35.9 µM and a GI50 [29] of 1.62 µM. For the same molecule, the TGI [29] was 6.18 µM, the GI50 [30] was 5.24 µM and the TGI [30] was 19 µM. The GI50 [31] was 1.62 µM, the TGI [31] was 3.83 µM and the GI50 [32] was 3.09 µM. It also gave a TGI [32] of 10.1 µM, a GI50 [33] of 4.11 µM and a TGI [33] of 15.4 µM. It also gave a GI50 [34] of 2.42 µM, a TGI [34] of 8.98 µM and a GI50 [35] of 1.85 µM. It also gave a TGI [35] of 5.47 µM, a GI50 [36] of 2.69 µM and a TGI [36] of over 100 µM. It also gave a GI50 [37] of 1.61 µM, a TGI [37] of 3.36 µM and a GI50 [38] of 2.08 µM. The TGI [38] was 5.85 µM, the GI50 [39] was 2.83 µM and the TGI [39] was 11.3 µM. For the same molecule, the GI50 [40] was 2.52 µM, the TGI [40] was 7.68 µM and the GI50 [41] was 1.73 µM. For the same molecule, the TGI [41] was 5.52 µM, the GI50 [42] was 1.8 µM and the TGI [42] was 3.61 µM. The GI50 [43] was 4.33 µM, the TGI [43] was 38.3 µM and the GI50 [44] was 2.02 µM. The TGI [44] was 4.99 µM, the GI50 [45] was 3.77 µM and the TGI [45] was 14.8 µM. For the same molecule, the GI50 [46] was 2.66 µM, the TGI [46] was 7.52 µM and the GI50 [47] was 2.6 µM. It also gave a TGI [47] of 9.46 µM, a GI50 [48] of 2.16 µM and a TGI [48] of 5.61 µM. It also gave a GI50 [49] of 2.19 µM, a TGI [49] of 5.88 µM and a GI50 [50] of 2.37 µM. For the same molecule, the TGI [50] was 6.08 µM, the GI50 [51] was 2.4 µM and the TGI [51] was 7.56 µM. It also gave a GI50 [52] of 3.23 µM, a TGI [52] of 15.1 µM and a GI50 [53] of 3.08 µM. For the same molecule, the TGI [53] was 14.2 µM, the GI50 [54] was 2.26 µM and the TGI [54] was 6.2 µM. For the same molecule, the GI50 [55] was 1.44 µM, the TGI [55] was 42.4 µM and the GI50 [56] was 2.08 µM. The TGI [56] was 4.83 µM, the GI50 [57] was 2.58 µM and the TGI [57] was 9.58 µM.
